Assay results reported in patent US9255072B2, “Pyrazole compounds and thiazole compounds as protein kinases inhibitors” (National Health Rsearch Institutes, priority 2011, dated 2016).
pIC50: −log10 of the molar value. Where two headings read alike, the source gives them in different places.

Legend:
Format in all cases: biochemical
wt-FLT3 = molecular target: T1, wt-FLT3 (Homo sapiens, UniProt P36888); experiment: FLT3 WT Kinase-Glo assay; conditions: FLT3 WT Kinase-Glo, 1 μM ATP; read-out: IC50
T1 construct: FLT3 kinase catalytic domain (residues Y567˜S993); made in house; host or cells: Sf9 insect cells (baculovirus, pBac-PAK8-GST-FLT3-KD plasmid)
T1 sequence (P36888 567-993): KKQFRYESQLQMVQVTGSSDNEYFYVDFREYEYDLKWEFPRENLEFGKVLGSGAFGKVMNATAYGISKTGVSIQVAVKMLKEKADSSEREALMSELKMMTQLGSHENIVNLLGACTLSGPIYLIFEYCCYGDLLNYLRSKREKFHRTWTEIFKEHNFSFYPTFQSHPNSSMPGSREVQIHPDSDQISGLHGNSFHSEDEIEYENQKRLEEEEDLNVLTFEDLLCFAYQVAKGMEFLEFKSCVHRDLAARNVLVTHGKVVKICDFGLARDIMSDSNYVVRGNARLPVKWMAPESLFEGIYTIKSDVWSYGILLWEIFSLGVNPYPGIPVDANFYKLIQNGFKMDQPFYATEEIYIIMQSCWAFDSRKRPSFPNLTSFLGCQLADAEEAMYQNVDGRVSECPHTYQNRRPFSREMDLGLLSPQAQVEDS
Description: GST-FLT3-KD^WT containing the FLT3 kinase catalytic domain (residues Y567˜S993) were expressed in Sf9 insect cells transfected the baculovirus containing pBac-PAK8-GST-FLT3-KD plasmid. […] Following incubation, 50 μl Kinase-Glo Plus Reagent (Promega, Madison, Wis., USA) was added to each well and the mixture was incubated at 25° C. for 20 min. A 70-μL aliquot of each reaction mixture was transferred to a black microtiter plate and the luminescence was measured on Wallac Vector 1420 multilabel counter (PerkinElmer, Shelton, Conn., USA).

Aurora A = molecular target: T2, Aurora A (Homo sapiens, UniProt O14965); experiment: Aurora kinase A Kinase-Glo kinase assay; conditions: Aurora A assay, 5 μM ATP, read-out: IC50
T2 construct: GST-Aurora A (residues S123-S401); GST (N); made in house; host or cells: Sf9 insect cells
T2 sequence (O14965 123-401): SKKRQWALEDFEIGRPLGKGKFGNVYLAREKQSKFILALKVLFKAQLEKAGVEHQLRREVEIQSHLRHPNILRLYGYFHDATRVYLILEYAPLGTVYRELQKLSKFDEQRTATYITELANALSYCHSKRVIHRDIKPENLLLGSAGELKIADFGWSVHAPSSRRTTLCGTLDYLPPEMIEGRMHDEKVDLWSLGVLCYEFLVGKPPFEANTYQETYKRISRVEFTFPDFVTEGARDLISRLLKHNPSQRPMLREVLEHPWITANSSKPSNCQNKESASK
Description: The recombinant GST-Aurora A (residues S123-S401) containing kinase domain were expressed in Sf9 insect cells. The kinase assay were carried out in 96-well plates with tested compound in a final volume of 50 μl reaction at 37° C. for 90 minutes with following components: 50 mM Tris-HCl pH 7.4, 10 mM NaCl, 10 mM MgCl2, 0.01% BSA, 5 μM ATP, 1 mM DTT and 15 μM tetra(LRRASLG) peptide, and 150 ng recombinant Aurora A. Following incubation, 50 μl Kinase-Glo Plus Reagent (Promega, Madison, Wis., USA) was added to each well and the mixture was incubated at 25° C. for 20 min. A 70-μL aliquot of each reaction mixture was transferred to a black microtiter plate and the luminescence was measured on Wallac Vector 1420 multilabel counter (PerkinElmer, Shelton, Conn., USA).

VEGFR2 = molecular target: T3, VEGFR2 (Homo sapiens, UniProt P35968); experiment: VEGFR2 Kinase-Glo kinase assay; conditions: VEGFR2 assay, 1 μM ATP, read-out: IC50
T3 construct: GST-VEGFR2 (residues V789-V1356); GST (N); made in house; host or cells: Sf9 insect cells
T3 sequence (P35968 789-1356): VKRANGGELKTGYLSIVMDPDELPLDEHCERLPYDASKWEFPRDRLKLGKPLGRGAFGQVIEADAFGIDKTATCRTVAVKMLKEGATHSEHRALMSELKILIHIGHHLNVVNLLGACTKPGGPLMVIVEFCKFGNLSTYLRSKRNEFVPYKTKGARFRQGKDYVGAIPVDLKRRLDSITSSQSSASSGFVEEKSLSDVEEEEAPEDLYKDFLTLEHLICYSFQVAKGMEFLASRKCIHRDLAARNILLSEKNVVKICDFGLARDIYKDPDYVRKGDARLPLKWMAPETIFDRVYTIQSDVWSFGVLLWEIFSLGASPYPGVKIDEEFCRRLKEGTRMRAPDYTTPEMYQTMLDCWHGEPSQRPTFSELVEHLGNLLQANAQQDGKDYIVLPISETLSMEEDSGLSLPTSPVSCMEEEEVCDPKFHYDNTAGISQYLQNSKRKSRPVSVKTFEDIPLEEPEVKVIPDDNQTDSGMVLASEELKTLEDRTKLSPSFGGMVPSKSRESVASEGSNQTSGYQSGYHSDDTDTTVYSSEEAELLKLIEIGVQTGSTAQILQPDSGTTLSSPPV
Description: (§1) The recombinant GST-VEGFR1 (residues R781-I1338) or GST-VEGFR2 (residues V789-V1356) containing kinase domain were expressed in Sf9 insect cells. The kinase assay were carried out in 96-well plates with tested compound in a final volume of 50 μl reaction at 30° C. for 120 minutes with following components: 25 mM HEPES pH 7.4, 10 mM MgCl2, 4 mM MnCl2, 0.5 mM Na3VO4, 2 mM DTT, 0.02% Triton X100, 0.01% BSA, 1 μM ATP, 2 μM polyGlu4:Tyr peptide, 50˜100 ng recombinant VEGFR1 or VEGFR2. Following incubation, 50 μl Kinase-Glo Plus Reagent (Promega, Madison, Wis., USA) was added to each well and the mixture was incubated at 25° C. for 20 min. A 70-μL aliquot of each reaction mixture was transferred to a black microtiter plate and the luminescence was measured on Wallac Vector 1420 multilabel counter (PerkinElmer, Shelton, Conn., USA).

VEGFR1 = molecular target: T4, VEGFR1 (Homo sapiens, UniProt P17948); experiment: VEGFR1 Kinase-Glo kinase assay; conditions: VEGFR1 assay, 1 μM ATP, read-out: IC50
T4 construct: GST-VEGFR1 (residues R781-I1338); GST (N); made in house; host or cells: Sf9 insect cells
T4 sequence (P17948 781-1338): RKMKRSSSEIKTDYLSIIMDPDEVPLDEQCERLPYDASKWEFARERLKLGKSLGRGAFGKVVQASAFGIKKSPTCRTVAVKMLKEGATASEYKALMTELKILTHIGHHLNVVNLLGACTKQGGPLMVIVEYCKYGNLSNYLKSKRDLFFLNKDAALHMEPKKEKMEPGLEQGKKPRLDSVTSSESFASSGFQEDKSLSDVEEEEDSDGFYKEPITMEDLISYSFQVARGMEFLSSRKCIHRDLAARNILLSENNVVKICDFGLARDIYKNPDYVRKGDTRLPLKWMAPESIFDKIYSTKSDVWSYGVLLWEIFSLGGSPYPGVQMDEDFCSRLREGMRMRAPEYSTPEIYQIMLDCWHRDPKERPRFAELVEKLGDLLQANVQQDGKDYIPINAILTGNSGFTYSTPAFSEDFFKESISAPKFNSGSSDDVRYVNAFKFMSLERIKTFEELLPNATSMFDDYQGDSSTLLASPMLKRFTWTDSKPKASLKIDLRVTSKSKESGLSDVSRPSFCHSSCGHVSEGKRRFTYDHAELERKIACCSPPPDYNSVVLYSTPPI
Description: as §1

pIC50 (wt-FLT3)	IC50 (Aurora A; bound in μM) [µM]	IC50 (VEGFR2; bound in μM) [µM]	IC50 (VEGFR2; ranges in nM) [µM]	IC50 (VEGFR1; bound in nM) [nM]	IC50 (VEGFR1; bound in μM) [nM]	IC50 (Aurora A; bound in nM) [µM]	Structure (SMILES)
7.70 to 9.00	< 1	< 1	0.001 to 0.055				Cc1cc(NC(=O)Nc2ccc(-c3cc(NC(=O)c4ccc(N5CCN(C)CC5)cc4)[nH]n3)cc2C)no1 [Compound 47, N1-3-[3-methyl-4-([(5-methyl-3-isoxazolyl)amino]carbonylamino)phenyl]-1H-5-pyrazolyl-4-(4-methylpiperazino)benzamide]
7.70 to 9.00	< 1	< 1	0.001 to 0.055	< 100	< 1000	< 0.2	CC(C)(C)c1cc(NC(=O)Nc2ccc(-c3cc(NC(=O)c4ccc(OCCN5CCOCC5)cc4)[nH]n3)cc2)no1 [Compound 44, N1-(3-4-[([5-(tert-butyl)-3-isoxazolyl]aminocarbonyl)amino]phenyl-1H-5-pyrazolyl)-4-(2-morpholinoethoxy)benzamide]
7.70 to 9.00	< 1	< 1	0.055 to 0.4		< 1000		Cc1nc(Nc2cc(-c3cccc(NS(=O)(=O)c4ccccc4)c3)n[nH]2)cc(N2CCN(C)CC2)n1 [Compound 85, N1-[3-(5-[2-methyl-6-(4-methylpiperazino)-4-pyrimidinyl]amino-1H-3-pyrazolyl)phenyl]-1-benzenesulfonamide]
	< 1					< 0.2	CN1CCN(c2ccc(C(=O)Nc3cc(-c4ccc(NC(=O)c5ccccc5)cc4)n[nH]3)cc2)CC1 [Compound 10, N1-3-[4-(benzoylamino)phenyl]-1H-5-pyrazolyl-4-(4-methylpiperazino)benzamide]
						< 0.2	Cc1cc(NC(=O)Nc2ccc(-c3cnc(NC(=O)c4ccc(OCCN5CCOCC5)cc4)s3)cc2)no1 [Compound 120, N1-5-[4-([(5-methyl-3-isoxazolyl)amino]carbonylamino)phenyl]-1,3-thiazol-2-yl-4-(2-morpholinoethoxy)benzamide]
7.70 to 9.00						< 0.2	CCN1CCN(c2cc(Nc3ncc(-c4ccc(N)cc4)s3)nc(C)n2)CC1 [Compound 102]
7.70 to 9.00	< 1	< 1	0.001 to 0.055	< 100	< 1000	< 0.2	CN1CCN(Cc2ccc(C(=O)Nc3cc(-c4ccc(NC(=O)Nc5cc(C(C)(C)C)on5)cc4)n[nH]3)cc2)CC1 [Compound 43, N1-(3-4-[([5-(tert-butyl)-3-isoxazolyl]aminocarbonyl)amino]phenyl-1H-5-pyrazolyl)-4-[(4-methylpiperazino)methyl]benzamide]
7.70 to 9.00	< 1	< 1	0.001 to 0.055				CN1CCN(c2ccc(C(=O)Nc3cc(-c4ccc(NC(=O)Nc5ccccc5)cc4)n[nH]3)cc2)CC1 [Compound 30, N1-(3-4-[(anilinocarbonyl)amino]phenyl-1H-5-pyrazolyl)-4-(4-methylpiperazino)benzamide]
7.70 to 9.00	< 1	< 1	0.001 to 0.055				O=C(NCc1ccc(-c2cc(NC(=O)c3ccc(OCCN4CCOCC4)cc3)[nH]n2)cc1)Nc1ccccc1 [Compound 61a, N1-[3-(4-[(anilinocarbonyl)amino]methylphenyl)-1H-5-pyrazolyl]-4-(2-morpholinoethoxy)benzamide]
7.70 to 9.00	< 1	< 1	0.055 to 0.4		< 1000		CN1CCN(c2ccc(C(=O)Nc3cc(-c4cccc(NS(=O)(=O)c5ccccc5)c4)n[nH]3)cc2)CC1 [Compound 12, N1-(3-3-[(phenylsulfonyl)amino]phenyl-1H-5-pyrazolyl)-4-(4-methylpiperazino)benzamide]
7.70 to 9.00	< 1	< 1	0.001 to 0.055		< 1000	< 0.2	Cc1cc(NC(=O)Nc2ccc(-c3cc(NC(=O)c4ccc(N5CCN(C)CC5)cc4)[nH]n3)cc2)no1 [Compound 32, N1-3-[4-([(5-methyl-3-isoxazolyl)amino]carbonylamino)phenyl]-1H-5-pyrazolyl-4-(4-methylpiperazino)benzamide]
7.70 to 9.00	< 1	< 1	0.055 to 0.4		< 1000		Cc1cccc(S(=O)(=O)Nc2cccc(-c3cc(NC(=O)c4ccc(N5CCN(C)CC5)cc4)[nH]n3)c2)c1 [Compound 15, N1-[3-(3-[(3-methylphenyl)sulfonyl]aminophenyl)-1H-5-pyrazolyl]-4-(4-methylpiperazino)benzamide]
	< 1						Cc1nc(Nc2ncc(-c3ccc(NC(=O)Nc4cc(C)on4)cc3)s2)cc(N2CCN(C)CC2)n1 [Compound 103, N-(5-methyl-3-isoxazolyl)-N′-[4-(2-[2-methyl-6-(4-methylpiperazino)-4-pyrimidinyl]amino-1,3-thiazol-5-yl)phenyl]urea]
7.70 to 9.00	< 1	< 1	0.055 to 0.4	< 100	< 1000		CN1CCN(c2ccc(C(=O)Nc3cc(-c4ccc(CNC(=O)OCc5ccccc5)cc4)n[nH]3)cc2)CC1 [Compound 70, Benzyl-N-[4-(5-[4-(4-methylpiperazino)benzoyl]amino-1H-3-pyrazolyl)benzyl]carbamate]
